Columns and labels:
Type in all cases: biochemical
JAK1 = target: T1, JAK1 (Homo sapiens, UniProt P23458); assay: JAK1 microfluidic kinase assay (Caliper EZ Reader II, FAM labeled peptide substrate); details: IC50 JAK1 (5 nM) (1 m MATP), JAK1 5 nM, 1 mM ATP
T1 construct: purchased Carna Biosciences
Procedure, shortened: (§1)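 Compounds, serially diluted 3-fold from 5 μM, were preincubated 10 min with enzyme at ambient temperature before reaction in HEPES/Brij35/MgCl2/DTT buffer (1% DMSO final), tuned to 10% peptide conversion. After EDTA stop, FAM-peptide phosphorylation was measured by Caliper EZ Reader II; IC50 fitted from percent-inhibition curves.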

JAK2 = target: T2, JAK2 (Homo sapiens, UniProt O60674); assay: JAK2 microfluidic kinase assay (Caliper EZ Reader II, FAM labeled peptide substrate)
T2 construct: purchased Carna Biosciences
Procedure, shortened: as §1

JAK2V617F = target: T3, JAK2V617F (Homo sapiens, UniProt O60674, V617F); assay: JAK2V617F microfluidic kinase assay (Caliper EZ Reader II, FAM labeled peptide substrate); details: JAK2V617F 2.5 nM, 1 mM ATP
T3 construct: purchased Carna Biosciences
Procedure, shortened: as §1

TYK2 = target: T4, TYK2 (Homo sapiens, UniProt P29597); assay: TYK2 microfluidic kinase assay (Caliper EZ Reader II, FAM labeled peptide substrate); details: IC50 TYK2 ([…]) (1 mM ATP), TYK2 […], 1 mM ATP
T4 construct: purchased Carna Biosciences
Protocol: Compounds were tested against JAK1, JAK2, JAK2V617F and TYK2. Assay Formats: JAK activity was determined in the reaction buffer 50 mM HEPES, 0.01% Brij35, 10 mM MgCl2, 2 mM DTT by a microfluidic assay. The phosphorylation of a FAM labeled peptide substrate was monitored in the Caliper EZ Reader II (Perkin Elmer). The assay condition for each batch of enzyme (Carna Biosciences) was optimized to obtain 10% conversion rate of peptide substrate. The test compounds were dissolved in DMSO to a stock concentration of 10 mM. 3-fold serially diluted compounds with top concentration of 5 μM were pre-incubated with JAK1, JAK2, JAK2V617F or TYK2 at indicated concentrations for 10 min at ambient temperature. The final DMSO concentration of assay mixture was 1%. […] The reaction was stopped by adding 50 mM EDTA. The reaction time for JAK1, JAK2, JAK2V617F and TYK2 was 120 min, 20 min, 30 min and 10 min, respectively. […] And the well without compound but with equivalent DMSO was defined as no inhibition. The percent inhibition was calculated by the following formula. % Inhibition=(Conversionmax−Conversionsample)/(Conversionmax−Conversionmin)*100 • Conversionmax means the conversion rate in the positive well without addition of compound • Conversionmin means the conversion rate in the well without addition of enzyme • Conversionsample means the conversion rate of test compounds The dose-response (percent inhibition) curve was plotted and IC50 values were determined by GraphPad software.

[1] = IC50 JAK2 ([…]) (1 mM ATP), 1 mM ATP

T2 sequence (O60674 whole entry): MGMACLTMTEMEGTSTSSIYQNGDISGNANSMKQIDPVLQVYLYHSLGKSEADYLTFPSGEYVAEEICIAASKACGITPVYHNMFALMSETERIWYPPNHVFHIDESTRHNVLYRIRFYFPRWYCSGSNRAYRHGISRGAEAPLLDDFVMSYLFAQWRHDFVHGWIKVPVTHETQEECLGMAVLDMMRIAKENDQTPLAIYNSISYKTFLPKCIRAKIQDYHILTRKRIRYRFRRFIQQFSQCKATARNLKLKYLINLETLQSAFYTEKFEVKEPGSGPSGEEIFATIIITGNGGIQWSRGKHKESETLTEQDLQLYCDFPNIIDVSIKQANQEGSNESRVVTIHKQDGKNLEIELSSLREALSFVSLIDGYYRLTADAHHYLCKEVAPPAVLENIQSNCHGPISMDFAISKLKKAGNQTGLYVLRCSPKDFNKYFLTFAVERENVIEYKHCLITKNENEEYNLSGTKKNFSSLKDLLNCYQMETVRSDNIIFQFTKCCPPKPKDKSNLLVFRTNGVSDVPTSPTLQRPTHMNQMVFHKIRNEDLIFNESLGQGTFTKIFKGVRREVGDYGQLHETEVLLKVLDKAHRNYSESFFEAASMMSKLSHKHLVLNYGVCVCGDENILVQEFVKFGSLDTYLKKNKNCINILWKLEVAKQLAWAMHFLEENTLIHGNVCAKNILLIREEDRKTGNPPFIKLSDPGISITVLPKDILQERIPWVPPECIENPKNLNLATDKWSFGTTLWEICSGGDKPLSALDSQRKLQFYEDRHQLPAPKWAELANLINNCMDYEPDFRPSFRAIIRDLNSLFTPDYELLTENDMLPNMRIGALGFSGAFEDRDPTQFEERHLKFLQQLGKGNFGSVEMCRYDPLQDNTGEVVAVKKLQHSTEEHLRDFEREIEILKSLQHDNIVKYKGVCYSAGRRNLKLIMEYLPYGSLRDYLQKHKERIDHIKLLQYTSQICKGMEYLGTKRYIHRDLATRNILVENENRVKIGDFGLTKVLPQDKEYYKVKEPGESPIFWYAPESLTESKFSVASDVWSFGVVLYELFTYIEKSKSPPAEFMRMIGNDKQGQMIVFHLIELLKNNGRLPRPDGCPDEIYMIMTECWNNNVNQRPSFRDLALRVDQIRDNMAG
T1 sequence (P23458 whole entry): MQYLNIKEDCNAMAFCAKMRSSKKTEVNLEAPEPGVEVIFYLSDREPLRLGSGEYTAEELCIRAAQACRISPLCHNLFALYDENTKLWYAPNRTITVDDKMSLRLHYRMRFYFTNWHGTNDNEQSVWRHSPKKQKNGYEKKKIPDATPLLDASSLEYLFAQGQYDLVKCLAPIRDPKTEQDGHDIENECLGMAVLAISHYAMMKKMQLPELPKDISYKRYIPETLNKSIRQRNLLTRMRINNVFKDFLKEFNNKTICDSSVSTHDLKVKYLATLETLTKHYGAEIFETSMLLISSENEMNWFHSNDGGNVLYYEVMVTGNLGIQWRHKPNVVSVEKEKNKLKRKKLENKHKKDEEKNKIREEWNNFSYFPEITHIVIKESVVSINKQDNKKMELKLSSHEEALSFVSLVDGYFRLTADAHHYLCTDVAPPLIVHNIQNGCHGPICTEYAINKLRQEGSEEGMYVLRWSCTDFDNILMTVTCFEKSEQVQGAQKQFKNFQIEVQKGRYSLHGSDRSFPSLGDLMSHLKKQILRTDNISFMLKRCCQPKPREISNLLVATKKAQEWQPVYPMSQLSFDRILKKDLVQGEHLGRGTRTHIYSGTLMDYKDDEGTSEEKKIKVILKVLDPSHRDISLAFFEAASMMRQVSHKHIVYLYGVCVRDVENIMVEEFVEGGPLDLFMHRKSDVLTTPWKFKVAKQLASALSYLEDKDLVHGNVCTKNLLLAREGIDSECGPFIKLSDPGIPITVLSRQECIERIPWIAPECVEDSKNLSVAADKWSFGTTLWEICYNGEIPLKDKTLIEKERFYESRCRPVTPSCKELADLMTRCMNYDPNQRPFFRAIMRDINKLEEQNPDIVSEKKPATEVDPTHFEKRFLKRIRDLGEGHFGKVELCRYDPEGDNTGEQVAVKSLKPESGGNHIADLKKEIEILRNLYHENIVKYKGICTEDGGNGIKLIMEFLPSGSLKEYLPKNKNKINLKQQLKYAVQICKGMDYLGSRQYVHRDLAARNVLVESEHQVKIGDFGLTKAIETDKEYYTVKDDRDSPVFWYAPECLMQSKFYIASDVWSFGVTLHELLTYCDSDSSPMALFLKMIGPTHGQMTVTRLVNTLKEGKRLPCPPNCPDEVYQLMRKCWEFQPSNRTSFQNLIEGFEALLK
T3 sequence (O60674 whole entry V617F): as the sequence (O60674 whole entry) above, with V617F counted along it
T4 sequence (P29597 whole entry): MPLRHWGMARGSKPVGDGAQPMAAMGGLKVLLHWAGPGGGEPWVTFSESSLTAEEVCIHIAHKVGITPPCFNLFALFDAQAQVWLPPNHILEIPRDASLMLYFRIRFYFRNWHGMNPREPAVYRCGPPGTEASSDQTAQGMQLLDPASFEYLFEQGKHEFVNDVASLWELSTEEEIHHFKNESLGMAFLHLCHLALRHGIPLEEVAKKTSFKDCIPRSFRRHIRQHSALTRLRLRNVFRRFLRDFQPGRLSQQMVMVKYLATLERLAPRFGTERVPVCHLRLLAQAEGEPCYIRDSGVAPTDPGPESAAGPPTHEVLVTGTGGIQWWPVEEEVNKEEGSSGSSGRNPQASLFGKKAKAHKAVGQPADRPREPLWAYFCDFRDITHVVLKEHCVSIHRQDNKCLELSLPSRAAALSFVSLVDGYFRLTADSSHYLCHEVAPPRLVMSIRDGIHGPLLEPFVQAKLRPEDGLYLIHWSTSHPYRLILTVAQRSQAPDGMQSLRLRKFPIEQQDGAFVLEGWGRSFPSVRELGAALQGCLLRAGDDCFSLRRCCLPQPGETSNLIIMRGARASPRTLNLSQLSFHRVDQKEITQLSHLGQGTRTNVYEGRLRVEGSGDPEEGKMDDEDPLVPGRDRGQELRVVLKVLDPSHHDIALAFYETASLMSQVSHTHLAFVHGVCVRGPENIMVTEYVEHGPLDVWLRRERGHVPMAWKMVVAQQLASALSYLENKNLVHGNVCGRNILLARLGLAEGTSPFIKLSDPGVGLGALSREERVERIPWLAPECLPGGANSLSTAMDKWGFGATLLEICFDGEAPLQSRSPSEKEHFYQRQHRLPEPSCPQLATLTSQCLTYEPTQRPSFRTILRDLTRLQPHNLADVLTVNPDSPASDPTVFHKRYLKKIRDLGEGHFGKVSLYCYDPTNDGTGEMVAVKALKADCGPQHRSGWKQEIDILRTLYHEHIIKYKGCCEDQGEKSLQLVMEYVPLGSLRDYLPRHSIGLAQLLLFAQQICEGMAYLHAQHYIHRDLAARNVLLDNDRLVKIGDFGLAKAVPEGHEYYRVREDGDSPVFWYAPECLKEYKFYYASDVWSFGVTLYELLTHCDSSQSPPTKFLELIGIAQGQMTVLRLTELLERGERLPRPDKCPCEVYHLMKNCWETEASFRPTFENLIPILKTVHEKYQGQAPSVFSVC

Row | Compound | IC50 (JAK1) | IC50 (JAK2; [1]) | IC50 (JAK2V617F) | IC50 (TYK2) | IC50 (JAK2; IC50 JAK2 ([…]) (Km ATP), Km ATP)
1 | CC(C)(C#N)CNC(=O)c1ccc(-c2nc(Nc3cnn(C4CCOCC4)c3)ncc2Cl)cc1 [Example 80, 4-(5-Chloro-2-((1-(tetrahydro-2H-pyran-4-yl)-1H-pyrazol-4-yl)amino)pyrimidin-4-yl)-N-(2-cyano-2-methylpropyl)benzamide] | 22.7 nM | 0.58 nM | 7.74 nM | 370 nM | –
2 | CC[C@@H](C#N)NC(=O)c1ccc(-c2nc(Nc3cnn(C4CCN(C)CC4)c3)ncc2F)cc1 [Example 59, (S)—N-(1-cyanopropyl)-4-(5-fluoro-2-((1-(1-methylpiperidin-4-yl)-1H-pyrazol-4-yl)amino)pyrimidin-4-yl)benzamide] | 23.6 nM | 83.4 nM | 136 nM | 111 nM | –
3 | CC[C@@H](C#N)NC(=O)c1ccc(-c2nc(Nc3cnn(C4CCCN(C)C4)c3)ncc2C)cc1 (stereo partly drawn) [Example 211, N—((S)-1-cyanopropyl)-4-(5-methyl-2-((1-(1-methylpiperidin-3-yl)-1H-pyrazol-4-yl)amino)pyrimidin-4-yl)benzamide] | 20.5 nM | 0.66 nM | – | 58.1 nM | –
4 | C[C@@H](C#N)NC(=O)c1ccc(-c2nc(Nc3cnn(C4CCN(C(=O)CO)CC4)c3)ncc2Cl)cc1 [Example 214, (S)-4-(5-chloro-2-((1-(1-(2-hydroxyacetyl)piperidin-4-yl)-1H-pyrazol-4-yl)amino)pyrimidin-4-yl)-N-(1-cyanoethyl)benzamide] | 15.6 nM | < 0.25 nM | – | 59.6 nM | –
5 | C[C@@H](C#N)NC(=O)c1ccc(-c2nc(Nc3cnn(CC#N)c3)ncc2F)cc1 [Example 53, (S)—N-(1-cyanoethyl)-4-(2-((1-(cyanomethyl)-1H-pyrazol-4-yl)amino)-5-fluoropyrimidin-4-yl)benzamide] | 69.7 nM | 293 nM | 658 nM | 198 nM | –
6 | Cc1cnc(Nc2cnn([C@@H]3C[C@@H](C)N[C@@H](C)C3)c2)nc1-c1ccc(C(=O)N[C@@H](C)C#N)cc1 [Example 231, N—((S)-1-cyanoethyl)-4-(2-((1-((2S,4s,6R)-2,6-dimethylpiperidin-4-yl)-1H-pyrazol-4-yl)amino)-5-methylpyrimidin-4-yl)benzamide] | 80.6 nM | 1.63 nM | – | 245 nM | –
7 | Cc1cnc(Nc2cnn([C@H]3C[C@@H](C)N[C@@H](C)C3)c2)nc1-c1ccc(C(=O)N[C@@H](C)C#N)cc1 [Example 232, N—((S)-1-cyanoethyl)-4-(2-((1-((2S,4r,6R)-2,6-dimethylpiperidin-4-yl)-1H-pyrazol-4-yl)amino)-5-methylpyrimidin-4-yl)benzamide] | 9.9 nM | 0.43 nM | – | 2.97 nM | –
8 | Cc1cnc(Nc2cnn(C3C[C@@H](C)N[C@H](C)C3)c2)nc1-c1ccc(C(=O)N[C@@H](C)C#N)cc1 (stereo partly drawn) [Example 230, N—((S)-1-cyanoethyl)-4-(2-((1-(trans-2,6-dimethylpiperidin-4-yl)-1H-pyrazol-4-yl)amino)-5-methylpyrimidin-4-yl)benzamide] | 14.2 nM | 0.71 nM | – | 24.2 nM | –
9 | Cc1cnc(Nc2cnn(CC#N)c2)nc1-c1ccc(C(=O)N[C@H](C)C#N)cc1 [Example 54, (R)—N-(1-cyanoethyl)-4-(2-((1-(cyanomethyl)-1H-pyrazol-4-yl)amino)-5-methylpyrimidin-4-yl)benzamide] | 34.3 nM | 210 nM | – | 304 nM | –
10 | Cc1cnc(Nc2cnn(C3CCC(O)CC3)c2)nc1-c1ccc(C(=O)N[C@@H](C)C#N)cc1 (stereo partly drawn) [Example 209, (S)—N-(1-cyanoethyl)-4-(2-((1-(4-hydroxycyclohexyl)-1H-pyrazol-4-yl)amino)-5-methylpyrimidin-4-yl)benzamide] | 14.3 nM | < 0.25 nM | – | 9.11 nM | –
11 | CC[C@@H](C#N)NC(=O)c1ccc(-c2nc(Nc3cnn(C4CCCNC4)c3)ncc2C)cc1 (stereo partly drawn) [Example 210, N—((S)-1-cyanopropyl)-4-(5-methyl-2-((1-(piperidin-3-yl)-1H-pyrazol-4-yl)amino)pyrimidin-4-yl)benzamide] | 11.4 nM | 2.39 nM | – | 88.2 nM | –
12 | Cc1cnc(Nc2cnn(C3CCNCC3)c2)nc1-c1ccc(C(=O)NCC#N)cc1 [Example 212, N-(cyanomethyl)-4-(5-methyl-2-((1-(piperidin-4-yl)-1H-pyrazol-4-yl)amino)pyrimidin-4-yl)benzamide] | 7.81 nM | 0.47 nM | – | 76.4 nM | –
13 | Cc1cnc(Nc2cnn(C3CCN(C)C(=O)C3)c2)nc1-c1ccc(C(=O)NCC#N)cc1 (stereo not shown) [Example 66, N-(cyanomethyl)-4-(5-methyl-2-((1-(1-methyl-2-oxopiperidin-4-yl)-1H-pyrazol-4-yl)amino)pyrimidin-4-yl)benzamide] | 18.3 nM | – | 51.7 nM | 70 nM | –
14 | Cc1cnc(Nc2ccn(C)n2)nc1-c1ccc(C(=O)NCC#N)cc1 [Example 107, N-(Cyanomethyl)-4-(5-methyl-2-((1-methyl-1H-pyrazol-3-yl)amino)pyrimidin-4-yl)benzamide] | 2310 nM | 1150 nM | – | > 5000 nM | 28.1 nM

The next molecules have a lower IC50 (JAK1) than those just listed; values first:

Row | IC50 (JAK1) | IC50 (JAK2; [1]) | IC50 (JAK2V617F) | IC50 (TYK2) | IC50 (JAK2; IC50 JAK2 ([…]) (Km ATP), Km ATP) | Compound
15 | 5.55 nM | 25.2 nM | 53.5 nM | 42.7 nM | – | C[C@@H](C#N)NC(=O)c1ccc(-c2nc(Nc3cnn(CC#N)c3)ncc2Cl)cc1 [Example 46, (S)-4-(5-Chloro-2-((1-(cyanomethyl)-1H-pyrazol-4-yl)amino)pyrimidin-4-yl)-N-(1-cyanoethyl)benzamide]
16 | 7.13 nM | 0.81 nM | 57.2 nM | 38.2 nM | – | Cc1cnc(Nc2cnn(C3CCN(C)CC3)c2)nc1-c1ccc(C(=O)NCC#N)cc1 [Example 49, N-(cyanomethyl)-4-(5-methyl-2-((1-(1-methylpiperidin-4-yl)-1H-pyrazol-4-yl)amino)pyrimidin-4-yl)benzamide]
17 | 5.17 nM | 10.6 nM | 33.3 nM | 31.4 nM | – | Cc1cnc(Nc2cnn(C3CC3)c2)nc1-c1ccc(C(=O)N[C@@H](C)C#N)cc1 [Example 94, (S)—N-(1-cyanoethyl)-4-(2-((1-cyclopropyl-1H-pyrazol-4-yl)amino)-5-methylpyrimidin-4-yl)benzamide]
18 | 2.47 nM | 25.2 nM | – | 39.7 nM | – | C[C@@H](C#N)NC(=O)c1ccc(-c2nc(Nc3cnn(CCO)c3)ncc2Cl)cc1 [Example 186, (S)-4-(5-chloro-2-((1-(2-hydroxyethyl)-1H-pyrazol-4-yl)amino)pyrimidin-4-yl)-N-(1-cyanoethyl)benzamide]
19 | 4.24 nM | 32.2 nM | – | 57.3 nM | – | CC[C@@H](C#N)NC(=O)c1ccc(-c2nc(Nc3cnn(C(C)C(F)(F)F)c3)ncc2C)cc1 (single isomer, unassigned) [Example 226, N—((S)-1-Cyanopropyl)-4-(5-methyl-2-((1-((S*)-1,1,1-trifluoropropan-2-yl)-1H-pyrazol-4-yl)amino)pyrimidin-4-yl)benzamide]
20 | 6.45 nM | 31.8 nM | – | 71.2 nM | – | N#CCNC(=O)c1ccc(-c2nc(Nc3cnn(CC#N)c3)ncc2Cl)cc1 [Example 41, 4-(5-Chloro-2-((1-(cyanomethyl)-1H-pyrazol-4-yl)amino)pyrimidin-4-yl)-N-(cyanomethyl)benzamide]
21 | 6.66 nM | 0.78 nM | – | 1.04 nM | – | Cc1cnc(Nc2cnn(C3CCNCC3)c2)nc1-c1ccc(C(=O)N[C@@H](C)C#N)cc1 [Example 170, (S)—N-(1-Cyanoethyl)-4-(5-methyl-2-((1-(piperidin-4-yl)-1H-pyrazol-4-yl)amino)pyrimidin-4-yl)benzamide]
22 | 3.83 nM | 22.1 nM | – | 45 nM | – | CC[C@@H](C#N)NC(=O)c1ccc(-c2nc(Nc3cnn(CCC#N)c3)ncc2Cl)cc1 [Example 190, (S)-4-(5-chloro-2-((1-(2-cyanoethyl)-1H-pyrazol-4-yl)amino)pyrimidin-4-yl)-N-(1-cyanopropyl)benzamide]
23 | 2.9 nM | 18.3 nM | – | 20.4 nM | – | C[C@@H](C#N)NC(=O)c1ccc(-c2nc(Nc3cn[nH]c3)ncc2Cl)cc1 [Example 188, (S)-4-(2-((1H-pyrazol-4-yl)amino)-5-chloropyrimidin-4-yl)-N-(1-cyanoethyl)benzamide]
24 | 1.84 nM | 0.78 nM | – | 0.88 nM | – | CC[C@@H](C#N)NC(=O)c1ccc(-c2nc(Nc3cnn(C4CCNCC4)c3)ncc2C)cc1 [Example 171, (S)—N-(1-Cyanopropyl)-4-(5-methyl-2-((1-(piperidin-4-yl)-1H-pyrazol-4-yl)amino)pyrimidin-4-yl)benzamide]
